The results in this text go back to patent EP0675900B1, “ANTIBIOTICS GE 37468 A, B AND C” (Biosearch Italia S.p.A., priority 1992, dated 1994).

For data set [1], the system named is gram positive bacteria and gram positive as well as gram negative anaerobes. Put plainly: Minimal inhibitory concentrations (MIC) by broth microdilution, in vitro antimicrobial activity. In kind it is cell-based. The following applies: summary in words of the in vitro spectrum; the MIC values of Table IV are printed only as an image.
Data set [2] is described as follows: Hydrolytic degradation in acidic aqueous buffer. In kind it is physicochemical. The following applies: kept for 6 to 18 hours in an aqueous buffer solution having a pH value between 3 and 4. From the text: Antibiotics GE37468B and GE37468C seem to derive from antibiotic GE37468A via hydrolytic degradation. […] The physico-chemical characteristics of these two products are as follows: […]

For data set [3], the system named is Staphylococcus aureus Smith. Put plainly: Experimental septicemia in mice. In kind it is in vivo, CD1 mice. Conditions: iv, 168 h, mice infected intraperitoneally with 10^6 CFU/mouse S. aureus Smith, compound given intravenously once immediately after infection, Spearman and Kaerber method from survival at day 7. Here is the method: The antimicrobial activity of antibiotic GE37468A was also confirmed in experimental septicemia in mice.
Groups of five CD1 mice of both sexes (Charles River, average weight 18-22 g) were infected intraperitoneally with 10^6 CFU/mouse of Staphylococcus aureus Smith suspended in 0.5 ml of 5% bacteriological mucin (Difco). The test compound was administered intravenously once, immediately after infection, in a sterile solution containing 10% dimethylsulfoxide, 10% Cremophor EL®, 20% 0.07 M phosphate buffer (pH 8), 60% glucose solution (5%).

For orientation: ED50 means the dose at which the effect has come halfway, by size or by number of responders.

`C=C(NC(=O)C(=C)NC(=O)c1csc(-c2ccc3c(n2)-c2csc(n2)-c2csc(n2)C2C(C)CC(O)N2C(=O)C(Cc2ccc(O)cc2)NC(=O)C2CSC(=N2)C(Cc2ccccc2)NC(=O)c2csc(n2)C(CC(N)=O)NC(=O)c2nc-3oc2C)n1)C(=O)O` (centres unmarked) [GE37468A]: the antimicrobial activity result in data set [1] was “mainly active against gram positive bacteria and gram positive as well as gram negative anaerobes”. Also, the “stability in aqueous buffer solution (hydrolytic degradation)” value in data set [2] was “yields substantial amounts of both antibiotic GE37468B and GE37468C”. In addition, the ED50 in data set [3] is 3.2 mg/kg.
As for `Cc1oc2nc1C(=O)NC(CC(N)=O)c1nc(cs1)C(=O)NC(Cc1ccccc1)C1=NC(CS1)C(=O)NC(Cc1ccc(O)cc1)C(=O)N1C(O)CC(C)C1c1nc(cs1)-c1nc(cs1)-c1nc(-c3nc(C(N)=O)cs3)ccc1-2` (centres unmarked) [GE37468B], in data set [1], the antimicrobial activity result is “mainly active against gram positive bacteria and gram positive as well as gram negative anaerobes”.
Regarding `C=C(NC(=O)c1csc(-c2ccc3c(n2)-c2csc(n2)-c2csc(n2)C2C(C)CC(O)N2C(=O)C(Cc2ccc(O)cc2)NC(=O)C2CSC(=N2)C(Cc2ccccc2)NC(=O)c2csc(n2)C(CC(N)=O)NC(=O)c2nc-3oc2C)n1)C(N)=O` (centres unmarked) [GE37468C], the antimicrobial activity result in data set [1] is “mainly active against gram positive bacteria and gram positive as well as gram negative anaerobes”.
